Results published in patent publication US20200138827A1, “SMALL MOLECULE MODULATORS OF HUMAN STING” (Curadev Pharma Limited, priority 2017, published 2020).
Read-outs that look alike come from different tables or passages of the source.

What was measured:
IRF pathway = experiment: Reporter gene expression assay in THP1-Dual cells, IRF axis (secreted Lucia luciferase); format: cell-based, human; details: read-out: THP-IRF activity (EC50 range)
Description: (§1) THP1-Dual™ cells (Invivogen) were derived from the human THP-1 monocyte cell line by stable integration of two inducible reporter constructs. As a result, THP1-Dual™ cells allow the simultaneous study of the NF-κB pathway, by monitoring the activity of secreted SEAP, and the IRF pathway, by assessing the activity of a secreted luciferase (Lucia). […] THP1-Dual™ cells were seeded in 384-well plates in growth medium and stimulated with novel compounds. After […] of stimulation supernatant were removed and reporter proteins were readily measured in the cell culture supernatant using QUANTI-Blue™ (Invivogen), a SEAP detection reagent, and QUANTI-Luc™ (Invivogen), a luciferase detection reagent on a Spectramax i3X luminometer.

hSTING(HAQ) = biological target: T1, hSTING(HAQ) (Homo sapiens, UniProt Q86WV6, G230A/H232R/R293Q/R71H); experiment: Luciferase reporter assay in HEK293T-hSTING-Luciferase cells, HAQ polymorph; format: cell-based; details: 20 hr stimulation, read-out: HAQ activity (EC50 range)
T1 construct: host or cells: HEK293T
Excerpt: (§2) • a) Stable STING expressing cells—Stable HEK293T STING-expressing cell lines were generated using plasmids purchased from Invivogen, Calif., USA, that contain STING cDNA cloned into the pUNO-1 vector under hEF1-HTLV promoter and containing the Blasticidin selection cassette. The plasmids hSTING(R232), hSTING(H232), hSTING(HAQ) were directly procured from Invivogen while hSTING (AQ) and hSTING (Q) were derived from hSTING(HAQ) and hSTING (R232) plasmids respectively by using a PCR based site directed mutagenesis method. These vectors were individually transfected into HEK293T cells using Lipofectamine (Invitrogen) and transfected cells were selected under Blasticidin selection. These transfected cells were further subjected to clonal selection using the limiting dilution method to obtain clonally pure populations of HEK cells transfected with each of the above mentioned human STING variants. Only those clones were selected in which ligand independent activation of STING was minimal. • b) Stable Luciferase reporter gene expressing cells—Stable HEK293T Luciferase reporter gene expressing cell lines were generated using pCDNA4 plasmids under an IRF-inducible promoter. This promoter is comprised of five tandem interferon-stimulated response elements (ISRE) fused to an ISG54 minimal promoter. This vector was transfected into HEK293T cells using Lipofectamine (Invitrogen) and transfected cells were selected under Zeocin selection. These transfected cells were further subjected to clonal selection using the limiting dilution method to obtain clonally pure populations of HEK cells transfected the Luciferase reporter construct. Only those clones were selected in which ligand independent induction of luciferase was minimal.
(§3) 5×10^5 clonally selected HEK293T-hSTING-Luciferase cells were seeded in 384-well plates in growth medium and stimulated with novel compounds. After 20 hr of stimulation supernatant were removed and secretary reporter gene activity were measured using the Quanti-Luc detection system (Invivogen) on a Spectramax i3X luminometer.
(§4) The 5 major polymorphisms of human STING are shown in FIG. 1, with their prevalence in human populations indicated.

NF-κB pathway = experiment: Reporter gene expression assay in THP1-Dual cells, NFkB axis (secreted SEAP); format: cell-based, human; details: read-out: THP-NFKB activity (EC50 range)
Description: as §1

WT/R232 STING protein = biological target: T2, WT/R232 STING protein (Homo sapiens, UniProt Q86WV6, H232R); experiment: Luciferase reporter assay in HEK293T-hSTING-Luciferase cells, WT/R232; format: cell-based; details: 20 hr stimulation, read-out: R232 Activity (EC50 range)
T2 construct: host or cells: HEK293T
Procedure, shortened: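 Clonal HEK293T cells stably expressing human STING R232 plus an ISRE/ISG54-driven luciferase reporter, 5×10^5 per well, stimulated with compounds for 20 h. Secreted luciferase in supernatant measured by luminescence; […].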

hSTING(H232) = biological target: T3, hSTING(H232) (Homo sapiens, UniProt Q86WV6); experiment: Luciferase reporter assay in HEK293T-hSTING-Luciferase cells, H232 polymorph; format: cell-based; details: 20 hr stimulation, read-out: H232 activity (EC50 range)
T3 construct: host or cells: HEK293T
Excerpt: as §2, §3, §4

T3 sequence (Q86WV6 whole entry): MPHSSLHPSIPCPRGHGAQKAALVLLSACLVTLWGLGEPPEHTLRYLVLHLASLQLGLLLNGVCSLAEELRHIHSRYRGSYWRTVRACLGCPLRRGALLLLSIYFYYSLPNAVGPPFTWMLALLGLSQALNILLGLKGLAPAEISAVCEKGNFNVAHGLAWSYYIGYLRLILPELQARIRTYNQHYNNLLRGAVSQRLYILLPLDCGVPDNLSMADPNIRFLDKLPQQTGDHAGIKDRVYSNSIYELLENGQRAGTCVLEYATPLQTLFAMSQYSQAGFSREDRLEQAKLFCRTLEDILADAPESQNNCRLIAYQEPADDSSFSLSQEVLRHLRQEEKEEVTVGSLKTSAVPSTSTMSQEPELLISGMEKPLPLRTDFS
T1 sequence (Q86WV6 whole entry R71H/G230A/H232R/R293Q): as the sequence (Q86WV6 whole entry) above, with R71H, G230A, H232R, R293Q counted along it
T2 sequence (Q86WV6 whole entry H232R): as the sequence (Q86WV6 whole entry) above, with H232R counted along it

Row | SMILES | EC50 (IRF pathway; Homo sapiens, THP1-Dual) [µM] | EC50 (hSTING(HAQ)) [µM] | EC50 (NF-κB pathway; Homo sapiens, THP1-Dual) [µM] | EC50 (WT/R232 STING protein) [µM] | EC50 (hSTING(H232)) [µM] | EC50 (IRF pathway) [µM] | EC50 (NF-κB pathway) [µM]
1 | CC1Sc2ccc(C(=O)NCc3c(F)cc(F)cc3F)cc2N(Cc2cccc(C(N)=O)c2)C1=O (centres unmarked) [Example 160, 4-(3-carbamoylbenzyl)-2-methyl-3-oxo-N-(2,4,6-trifluorobenzyl)-3,4-dihydro-2H-benzo[b][1,4] thiazine-6-carboxamide] | > 10 | > 10 | > 10 | < 1 | > 10 | – | –
2 | O=C(NCc1ccco1)c1ccc2c(c1)N(Cc1cc(F)cc(F)c1)C(=O)CS2 [Example 87, 4-(3,5-difluorobenzyl)-N-(furan-2-ylmethyl)-3-oxo-3,4-dihydro-2H-benzo[b][1,4] thiazine-6-carboxamide] | > 10 | > 10 | > 10 | < 1 | 1 to 10 | – | –
3 | O=C(NCc1ccco1)c1ccc2c(c1)N(Cc1c(F)cccc1Cl)C(=O)CS2 [Example 131, 4-(2-chloro-6-fluorobenzyl)-N-(furan-2-ylmethyl)-3-oxo-3,4-dihydro-2H-benzo[b][1,4]thiazine-6-carboxamide] | > 10 | > 10 | > 10 | 1 to 10 | 1 to 10 | – | –
4 | O=C(NCc1ccccc1)c1ccc2c(c1)N(Cc1ccccc1)C(=O)CS2 [Example 118, N,4-dibenzyl-3-oxo-3,4-dihydro-2H-benzo[b-1,4]thiazine-6-carboxamide] | > 10 | > 10 | > 10 | 1 to 10 | 1 to 10 | – | –
5 | CCCC1Sc2ccc(C(=O)NCc3c(F)cc(F)cc3F)cc2N(Cc2c(F)cccc2Cl)C1=O (centres unmarked) [Example 147, 4-(2-chloro-6-fluorobenzyl)-3-oxo-2-propyl-N-(2,4,6-trifluorobenzyl)-3,4-dihydro-2H-benzo[b-1,4]thiazine-6-carboxamide] | > 10 | 1 to 10 | > 10 | < 1 | 1 to 10 | – | –
6 | O=C(NCc1ccco1)c1ccc2c(c1)N(Cc1c(Cl)cccc1Cl)C(=O)CS2 [Example 93, 4-(2,6-dichlorobenzyl)-N-(furan-2-ylmethyl)-3-oxo-3,4-dihydro-2H-benzo[b-1,4]thiazine-6-carboxamide] | > 10 | > 10 | > 10 | 1 to 10 | 1 to 10 | – | –
7 | O=C(NCc1cc2ccccc2o1)c1ccc2c(c1)N(Cc1ccccc1)C(=O)CS2 [Example 69, N-(benzofuran-2-ylmethyl)-4-benzyl-3-oxo-3,4-dihydro-2H-benzo[b-1,4]thiazine-6-carboxamide] | > 10 | 1 to 10 | > 10 | 1 to 10 | 1 to 10 | – | –
8 | O=C(NCc1c(F)cc(F)cc1F)c1cnc2c(c1)N(Cc1cc(F)cc(F)c1)C(=O)CS2 [Example 200, 1-(3,5-difluorobenzyl)-2-oxo-N-(2,4,6-trifluorobenzyl)-2,3-dihydro-1H-pyrido[2,3-b] [1,4]thiazine-7-carboxamide] | > 10 | 1 to 10 | > 10 | < 1 | 1 to 10 | – | –

Further lines, results first:

Row | EC50 (IRF pathway; Homo sapiens, THP1-Dual) [µM] | EC50 (hSTING(HAQ)) [µM] | EC50 (NF-κB pathway; Homo sapiens, THP1-Dual) [µM] | EC50 (WT/R232 STING protein) [µM] | EC50 (hSTING(H232)) [µM] | EC50 (IRF pathway) [µM] | EC50 (NF-κB pathway) [µM] | SMILES
9 | > 10 | 1 to 10 | > 10 | < 1 | 1 to 10 | – | – | CC1Sc2ccc(C(=O)NCc3ccco3)nc2N(Cc2cc(F)cc(F)c2)C1=O (centres unmarked) [Example 189, 4-(3,5-difluorobenzyl)-N-(furan-2-ylmethyl)-2-methyl-3-oxo-3,4-dihydro-2H-pyrido[3,2-b-1,4]thiazine-6-carboxamide]
10 | – | 1 to 10 | – | < 1 | 1 to 10 | > 10 | > 10 | CC1Sc2ncc(C(=O)NCc3cc4ccccc4o3)cc2N(Cc2cc(F)cc(F)c2)C1=O (centres unmarked) [Example 193, N-(benzofuran-2-ylmethyl)-1-(3,5-difluorobenzyl)-3-methyl-2-oxo-2,3-dihydro-1H-pyrido[2,3-b][1,4]thiazine-7-carboxamide]
11 | > 10 | 1 to 10 | > 10 | < 1 | 1 to 10 | – | – | C=CCC1Sc2ccc(C(=O)NCc3c(F)cc(F)cc3F)cc2N(Cc2c(F)cccc2Cl)C1=O (centres unmarked) [Example 146, 2-allyl-4-(2-chloro-6-fluorobenzyl)-3-oxo-N-(2,4,6-trifluorobenzyl)-3,4-dihydro-2H-benzo[b-1,4]thiazine-6-carboxamide]
12 | > 10 | 1 to 10 | > 10 | < 1 | 1 to 10 | – | – | C[C@H]1Oc2ccc(C(=O)NCc3c(F)cc(F)cc3F)cc2N(Cc2cc(F)cc(F)c2)C1=O [Example 233, (R)-4-(3,5-difluorobenzyl)-2-methyl-3-oxo-N-(2,4.,6-trifluorobenzyl)-3,4-dihydro-2H-benzo[b-1,4]oxazine-6-carboxamide]
13 | 1 to 10 | 1 to 10 | 1 to 10 | < 1 | 1 to 10 | – | – | O=C(NCc1cc2ccccc2o1)c1ccc2c(c1)N(Cc1c(F)cccc1Cl)C(=O)CS2 [Example 40, N-(benzofuran-2-ylmethyl)-4-(2-chloro-6-fluorobenzyl)-3-oxo-3,4-dihydro-2H-benzo[b-1,4]thiazine-6-carboxamide]
14 | > 10 | 1 to 10 | > 10 | 1 to 10 | 1 to 10 | – | – | O=C(NCc1c(F)cc(F)cc1F)c1ccc2c(c1)N(Cc1ccncc1)C(=O)CS2 [Example 39, 3-oxo-4-(pyridin-4-ylmethyl)-N-(2,4,6-trifluoro-benzyl)-3,4-dihydro-2H-benzo[b-1,4]thiazine-6-carboxamide]
15 | > 10 | 1 to 10 | > 10 | 1 to 10 | 1 to 10 | – | – | CC1Sc2ncc(C(=O)NCc3ccccc3)cc2N(Cc2c(F)cccc2Cl)C1=O (centres unmarked) [Example 201, N-benzyl-1-(2-chloro-6-fluorobenzyl)-3-methyl-2-oxo-2,3-dihydro-1H-pyrido[2,3-b][1,4]thiazine-7-carboxamide]
16 | 1 to 10 | 1 to 10 | 1 to 10 | < 1 | 1 to 10 | – | – | CC1Sc2ccc(C(=O)NCc3c(F)cc(F)cc3F)cc2N(Cc2cc(F)cc(F)c2)C1=O (centres unmarked) [Example 153, 4-(3,5-difluorobenzyl)-2-methyl-3-oxo-N-(2,4,6-trifluorobenzyl)-3,4-dihydro-2H-benzo[b][1,4] thiazine-6-carboxamide]
17 | > 10 | 1 to 10 | > 10 | 1 to 10 | 1 to 10 | – | – | O=C(NCc1cc2ccccc2o1)c1ccc2c(n1)N(Cc1cc(F)cc(F)c1)C(=O)CC2 [Example 281, N-(benzofuran-2-ylmethyl)-8-(3,5-difluorobenzyl)-7-oxo-5,6,7,8-tetrahydro-1,8-naphthyridine-2-carboxamide]
18 | > 10 | 1 to 10 | > 10 | 1 to 10 | 1 to 10 | – | – | Cc1ccc(CNC(=O)c2ccc3c(n2)N(Cc2c(F)cccc2Cl)C(=O)C(C)S3)o1 (centres unmarked) [Example 202, 4-(2-chloro-6-fluorobenzyl)-2-methyl-N-((5-methylfuran-2-yl)methyl)-3-oxo-3,4-dihydro-2H-pyrido[3,2-b] [1,4]thiazine-6-carboxamide]
19 | > 10 | 1 to 10 | > 10 | < 1 | > 10 | – | – | O=C(NCc1ccc(F)cc1)c1ccc2c(c1)N(Cc1c(F)cccc1Cl)C(=O)CC2 [Example 269, 1-(2-chloro-6-fluorobenzyl)-N-(4-fluorobenzyl)-2-oxo-1,2,3,4-tetrahydroquinoline-7-carboxamide]
